Target: T1, human thrombi (Homo sapiens, UniProt P02671+P02675+P02679)
T1 construct: Human plasma was allowed to clot for 90 min at 37 °C; from tissue; host or cells: citrated plasma of healthy human volunteers, clotted with CaCl2 and tissue factor
T1 sequence (P02671 36-629 limits assumed): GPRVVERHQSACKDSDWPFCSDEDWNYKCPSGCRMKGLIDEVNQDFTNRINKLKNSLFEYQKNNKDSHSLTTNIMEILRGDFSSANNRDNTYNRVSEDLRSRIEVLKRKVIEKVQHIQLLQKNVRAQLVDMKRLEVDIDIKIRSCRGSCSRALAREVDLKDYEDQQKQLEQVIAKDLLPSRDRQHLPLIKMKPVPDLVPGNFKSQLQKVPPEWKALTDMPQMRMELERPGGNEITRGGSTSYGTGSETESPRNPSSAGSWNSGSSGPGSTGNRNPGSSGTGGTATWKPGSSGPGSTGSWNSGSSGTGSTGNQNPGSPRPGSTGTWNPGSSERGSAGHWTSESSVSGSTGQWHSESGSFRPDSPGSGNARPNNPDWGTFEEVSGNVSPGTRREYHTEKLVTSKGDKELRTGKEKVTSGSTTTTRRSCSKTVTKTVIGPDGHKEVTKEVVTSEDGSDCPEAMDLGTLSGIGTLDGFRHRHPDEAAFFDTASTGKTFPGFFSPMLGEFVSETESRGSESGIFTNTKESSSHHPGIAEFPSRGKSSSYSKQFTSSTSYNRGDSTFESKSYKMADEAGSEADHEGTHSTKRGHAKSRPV
T1 sequence (P02675 45-491 limits assumed): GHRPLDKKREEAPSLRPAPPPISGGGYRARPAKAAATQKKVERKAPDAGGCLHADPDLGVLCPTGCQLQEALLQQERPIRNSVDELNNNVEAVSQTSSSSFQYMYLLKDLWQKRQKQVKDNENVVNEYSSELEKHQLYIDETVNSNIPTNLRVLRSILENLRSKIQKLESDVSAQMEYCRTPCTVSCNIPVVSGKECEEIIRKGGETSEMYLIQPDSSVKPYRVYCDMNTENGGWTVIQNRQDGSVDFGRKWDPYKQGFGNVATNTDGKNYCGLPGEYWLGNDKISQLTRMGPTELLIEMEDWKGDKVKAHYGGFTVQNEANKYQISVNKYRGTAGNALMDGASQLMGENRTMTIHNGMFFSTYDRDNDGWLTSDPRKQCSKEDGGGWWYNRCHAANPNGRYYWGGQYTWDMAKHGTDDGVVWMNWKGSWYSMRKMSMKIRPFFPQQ
T1 sequence (P02679 27-437 isoform P02679-2 limits assumed): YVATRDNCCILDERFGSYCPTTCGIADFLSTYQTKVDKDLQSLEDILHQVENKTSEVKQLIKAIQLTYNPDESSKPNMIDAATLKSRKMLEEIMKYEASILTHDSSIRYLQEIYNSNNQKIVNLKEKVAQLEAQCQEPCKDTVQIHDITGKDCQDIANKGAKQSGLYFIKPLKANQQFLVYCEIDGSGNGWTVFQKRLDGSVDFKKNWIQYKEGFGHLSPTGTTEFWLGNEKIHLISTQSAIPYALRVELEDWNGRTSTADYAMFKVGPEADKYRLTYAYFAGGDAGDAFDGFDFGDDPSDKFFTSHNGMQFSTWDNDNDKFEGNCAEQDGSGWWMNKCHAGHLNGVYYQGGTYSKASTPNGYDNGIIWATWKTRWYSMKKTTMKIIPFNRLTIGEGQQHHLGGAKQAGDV
Assay: In vitro probe depletion: incorporation of rhodamine-labelled probes into human plasma thrombi (OD570 of supernatant)
Format: binding
Conditions: mean
Protocol: Human blood was collected from healthy volunteers by venipuncture using a vacutainer tube containing trisodium citrate after signing informed consent (Helsinki declaration). […] At the indicated time points, the OD570 of the supernatant was measured. Mouse blood was collected through a tail vein puncture, and plasma from 6 mice was pooled. Human and mouse thrombi were allowed to form as described above and subsequently incubated with 100 μ L or 16 ng/ μ L ^111 In-A16 or ^111 In-control-A16. After 30, 60 and 180 min, the thrombi were washed twice with 1 mL PBS, and the amount of tracer uptake in the thrombi was calculated using gamma counting (Wallac Wizard, Turku, Finland). Data were expressed as the percentage of tracer uptake in the thrombi to the total amount of tracer added.
LisB-A16 was compared with bi- α 2-AP-CA. Human plasma was allowed to clot for 90 min at 37 °C, after which a 3 μ M probe was added. The decrease in probe left in the solution was measured by colourimetry and represented probe incorporation into the human thrombi (Figure 2A). […]
Figure 2 In vitro probe depletion. […] OD (570 nm) in solution was measured after 1, 2, 3 and 4 h as a measure of probe incorporation in thrombi. […]
OD (570 nm) in soluti on was measured after 1, 2, 3 and 4 hours , as a measure of probe […]

absorption at 570 nm of probe left in solution (probe incorporation into human thrombi) (3 μM probe added to human plasma thrombi formed 90 min at 37 °C (14 mM CaCl2, 0.6 nM TF), OD570 of supernatant measured after 1, 2, 3 and 4 h, n = 4, lower = more incorporation): 53%
remaining probe in solution (15 μM probe added to human plasma thrombi formed 90 min at 37 °C, OD570 of supernatant after 1, 2, 3 and 4 h, n = 4 (Figure S2)): 61%
Substance: Ac-GNQEQVSPLTLLK1-K(LisB)K-NH 2 [LisB-A16, red fluorescent A16 probe conjugated with Lissamine rhodamine-B]
